The values that follow come from PubChem BioAssay (NCI).

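Compound exposure: 48 hours, 5 concentrations, 96-well plates. TGI: concentration producing complete growth inhibition.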

Some test systems named below: DMS 114 small cell lung; KM20L2 colon; LXFL 529 NSCLC; RXF-631 renal; SNB-78 CNS; XF 498 CNS; BT-549 breast; HOP-18 NSCLC; MDA-N.
Holding throughout (experiment): DTP human tumour cell line panel, 48 h

For `c1ccc(SC(CCCCC(Sc2ccccc2)Sc2ccccc2)Sc2ccccc2)cc1`, the TGI in the test with DMS 114 small cell lung, in the test on KM20L2 colon, with LXFL 529 NSCLC, in the test with RXF-631 renal, in the test on SNB-78 CNS and with XF 498 CNS was above 100 µM throughout.
Consider `CCCCNCC(=O)O[C@]1(CC)C(=O)OCc2c1cc1n(c2=O)Cc2cc3ccccc3nc2-1`, for which the TGI with BT-549 breast was 8.36 µM; in the test with DMS 114 small cell lung it was 4.69 µM; in the test on HOP-18 NSCLC, 48.9 µM; in the test on KM20L2 colon, above 100 µM; in the test on LXFL 529 NSCLC, 56.8 µM; in the test on MDA-N, 23.1 µM. The TGI is 6.9 µM with RXF-631 renal, above 100 µM in the test with SNB-78 CNS and 2.92 µM in the test on XF 498 CNS.
Turning to `CCOC(=O)C(C)(c1cn(C)c2ccccc12)c1cn(C)c2ccccc12`, the TGI in the test on DMS 114 small cell lung, in the test on KM20L2 colon, in the test on LXFL 529 NSCLC, with RXF-631 renal, in the test on SNB-78 CNS and with XF 498 CNS was above 100 µM each time.
Take `C[C@]12CCC3[C@@H](CC[C@@H]4c5nonc5CC[C@]34C)C1CCC(=O)N2` (stereo partly drawn): the TGI in the test with HOP-18 NSCLC, in the test on KM20L2 colon, in the test with LXFL 529 NSCLC, in the test with RXF-631 renal, in the test on SNB-78 CNS and with XF 498 CNS was above 100 µM each time.
On to `CCC1CN2CCc3cc(OC)c(OC)cc3C2CC1CC1c2cc(OC)c(OC)cc2CCN1C(=O)C1CCCN1C(=O)OCc1ccccc1` (stereo not drawn), for which the TGI in the test with DMS 114 small cell lung was 26.9 µM; in the test with HOP-18 NSCLC, 53.7 µM; with KM20L2 colon it was 31.4 µM; in the test with LXFL 529 NSCLC, 29.9 µM; in the test on RXF-631 renal it was 33.9 µM; in the test on SNB-78 CNS, 31.2 µM. Besides, the TGI in the test with XF 498 CNS turned out to be 30.4 µM.
`CCCCCCc1cc(C(=O)Nc2cccc(C(F)(F)F)c2)nc(N)n1`: the TGI with DMS 114 small cell lung, in the test on HOP-18 NSCLC, in the test with KM20L2 colon, with LXFL 529 NSCLC, in the test on RXF-631 renal and with SNB-78 CNS was above 100 µM each time.
Take `O=C1C=C(Br)c2c(-c3ccccc3)oc3cccc1c23`: the TGI is above 100 µM in the test with BT-549 breast; above 100 µM in the test with DMS 114 small cell lung; above 100 µM in the test with HOP-18 NSCLC; above 100 µM with KM20L2 colon; above 100 µM in the test with LXFL 529 NSCLC; 66 µM in the test on MDA-N. For the same molecule, the TGI with RXF-631 renal and in the test on SNB-78 CNS was above 100 µM in each case.
As to `N#CC(C(=O)CCC(=O)Nc1cccc(Cl)c1)c1ccccc1` (stereo not drawn), the TGI with DMS 114 small cell lung, in the test on HOP-18 NSCLC, in the test with KM20L2 colon, with LXFL 529 NSCLC, in the test on RXF-631 renal and with SNB-78 CNS was above 100 µM throughout.
Regarding `COc1cc(C(=O)C/C(CCC(=O)Nc2ccccc2[N+](=O)[O-])=N\NC(=O)CC#N)ccc1O`, the TGI in the test on HOP-18 NSCLC, with KM20L2 colon, in the test on LXFL 529 NSCLC, in the test with RXF-631 renal and in the test with XF 498 CNS was above 100 µM each time.
With `CCOc1ccc2nc(NC(=O)c3c/c(=N\NC(=O)C[N+](C)(C)C)c4ccc(O)cc4o3)sc2c1`, the total growth inhibition concentration (TGI) in the test with DMS 114 small cell lung came out at 4.51 µM; in the test on HOP-18 NSCLC, 5.05 µM; with KM20L2 colon, 10 µM; with LXFL 529 NSCLC it was 4.45 µM; in the test with RXF-631 renal it was 26.8 µM; with SNB-78 CNS, 15.5 µM. This molecule gave a TGI in the test on XF 498 CNS of 6.14 µM.
For `COc1ccc(OC)c(NC(=O)CCC/C(CC(=O)c2ccc(O)c(OC)c2)=N\NC(=O)C[N+](C)(C)C)c1`, the TGI in the test on DMS 114 small cell lung, in the test with HOP-18 NSCLC, with KM20L2 colon, in the test with LXFL 529 NSCLC, with RXF-631 renal and in the test with XF 498 CNS was above 100 µM throughout.
Turning to `CCCCCCCCCCCC(=O)OCCOCCOCCOCCOCCOCc1ccc(OC)cc1`, the TGI in the test with DMS 114 small cell lung, in the test with HOP-18 NSCLC, in the test with KM20L2 colon, in the test with LXFL 529 NSCLC, with RXF-631 renal and with SNB-78 CNS was above 100 µM in each case.
